Test results published in patent US12162864B2, “Condensed-cyclic compound” (Takeda Pharmaceutical Company Limited, priority 2018, dated 2024).

How the values were obtained:
MDR1 = biological target: T1, MDR1 (Homo sapiens, UniProt P08183); assay: MDR1 membrane permeability test; assay type: in vitro ADME; conditions: pH 7.4, human MDR1-expressing LLC-PK1 cells, 10 μmol/L test compound, read-out: Efflux ratio (ER)
T1 construct: expressed in transfected cells
Description: MDR1 Membrane Permeability Test
When MDR1 is expressed in excess in LLC-PK1 cell, which is a polar cell, MDR1 is localized in apical membrane (A), thus promoting transcellular transport from the basement membrane side (B) toward direction A. When a ratio to the transcellular transport in the opposite direction is taken and a ratio to a control cell in which a mock vector has been introduced is further taken, an efflux ratio of MDR1 to simple diffusion (corrected efflux ratio) is calculated. Similarly, when a brain/plasma concentration ratio in Mdr1(−/−) mouse is divided by a brain/plasma concentration ratio in wild-type mouse, an efflux ratio of Mdr1 to simple diffusion in blood-brain barrier (BBB) (Kp, brain ratio, higher value means lower central nervous system permeability) is calculated. Adachi Y. et al. (Reference 1) has reported a positive correlation between corrected efflux ratio and Kp, brain ratio (FIG. 5(C)), and efflux ratio in MDR1 expressing cell and Kp, brain ratio (FIG. 5(B)).
To confirm the central nervous system permeability of the compounds of the present invention, a MDR1 membrane permeability test was performed by the following method.
Digoxin and lucifer yellow (LY) were purchased from Sigma-Aldrich™, Diclofenac, colchicine and alprenolol were purchased from Wako Pure Chemical Industries, Ltd., and other reagents used were commercially available products of special grade.
Human MDR1-expressing LLC-PK1 cells were cultured according to the report of Takeuchi et al. (Reference 2). Human MDR1-expressing LLC-PK1 cells were cultured in 10% fetal bovine serum (Invitrogen™), 500 μg/ml G418 (Invitrogen™), 150 ng/ml colchicine-containing M199 medium (Invitrogen™) under 5% CO2 conditions at 37° C.
Transcellular transport was performed according to the report of Sugimoto et al. (Reference 3). The cells were cultured for 3 days on HTS Transwell™ (registered trademark) 96 well permeable support (pore size 0.4 μm, 0.143 cm^2 surface area, Corning Life Sciences) having polyethylene terephthalate membrane on which the cells had been seeded at 3.45×10^4 cells/well. After preincubation in M199 medium (containing 10 mmol/L HEPES, 1% BSA, pH 7.4) for 30 min, a drug solution (10 μmol/L digoxin, 200 μmol/L LY, 10 μmol/L test compound) dissolved in M199 medium was added to the apical side or basolateral side of the Transwell™ by 75 or 250 μL each and the cells were cultured under 5% CO2 conditions at 37° C. After 1 hr, the sample was collected from the side opposite to the side where the drug solution was added, and the concentration of the test compound was measured by LC-MS/MS. As an internal standard substance, 100 ng/mL alprenolol and diclofenac were used. The analysis conditions were as follows. • LC: UFLC LC-20 (Shimadzu™) • MS/MS: API4000 (AB Sciex™ Instruments) • LC condition: gradient method
• Column: Unison UK-C18 HT (3.0 μm, 2.0×20 mm) • Column temperature: 50° C. • Flow rate: 0.7 mL/min (for 1.5 min run), 1.0 mL/min (for 1.0 min run) • Mobile phase A: 50 mM CH3COONH4:MeCN:water=1:1:8 • Mobile phase B: 50 mM CH3COONH4:MeCN=1:9 • Injection volume: 1-20 μL
LY was measured by a fluorescence plate reader (Fluoroskan Ascent FL).
Papp, A to B and Papp, B to A (apparent permeability) were calculated from the formula (1), and the efflux ratio (ER) was calculated from the formula (2).
[formula] • Amount: amount of transported digoxin/well • Area: surface area of cell monolayer (0.143 cm^2) • C0: concentration of drug solution added • Time: incubation time

Male SD rats = assay: Rat defecation experiment; assay type: in vivo; conditions: oral, mean±standard error
Description: Rat Defecation Experiment
Male SD rats (5-6 weeks old) were used after an acclimation period for about 1 week. A test drug (1 mg/kg or 3 mg/kg) was suspended in 0.5% methylcellulose solution and orally administered at a volume of 5 mL/kg, and the number of feces for 2 hr later was counted. Only 0.5% methylcellulose was administered to a solvent administration group.

Male beagle dogs = assay: Experiment on gastrointestinal motility in dogs; assay type: in vivo, dog; conditions: 4 or 8 hr after administration, compared with solvent administration group
Description: Experiment on Gastrointestinal Motility in Dogs
Male beagle dogs each equipped with four pressure transducers (one in the ileum and three in the large intestine) were used after an acclimation period for 15 days. The compound of Example 13 (0.03 mg/kg) or the compound of Example 60 (1 mg/kg) was suspended in 0.5% methylcellulose solution and orally administered at a volume of 10 mL/kg. Only 0.5% methylcellulose was administered to a solvent administration group.
HAPC (abbreviation for high amplitude propagated contractions which mean strong contractions propagated from the oral side to the anal side of the large intestine during defecation. Intestinal contraction pattern observed during normal defecation.) at 4 or 8 hr after administration was counted using a telemeter for gastrointestinal motility (GTS-850, STARMEDICAL).

T1 sequence (P08183 whole entry): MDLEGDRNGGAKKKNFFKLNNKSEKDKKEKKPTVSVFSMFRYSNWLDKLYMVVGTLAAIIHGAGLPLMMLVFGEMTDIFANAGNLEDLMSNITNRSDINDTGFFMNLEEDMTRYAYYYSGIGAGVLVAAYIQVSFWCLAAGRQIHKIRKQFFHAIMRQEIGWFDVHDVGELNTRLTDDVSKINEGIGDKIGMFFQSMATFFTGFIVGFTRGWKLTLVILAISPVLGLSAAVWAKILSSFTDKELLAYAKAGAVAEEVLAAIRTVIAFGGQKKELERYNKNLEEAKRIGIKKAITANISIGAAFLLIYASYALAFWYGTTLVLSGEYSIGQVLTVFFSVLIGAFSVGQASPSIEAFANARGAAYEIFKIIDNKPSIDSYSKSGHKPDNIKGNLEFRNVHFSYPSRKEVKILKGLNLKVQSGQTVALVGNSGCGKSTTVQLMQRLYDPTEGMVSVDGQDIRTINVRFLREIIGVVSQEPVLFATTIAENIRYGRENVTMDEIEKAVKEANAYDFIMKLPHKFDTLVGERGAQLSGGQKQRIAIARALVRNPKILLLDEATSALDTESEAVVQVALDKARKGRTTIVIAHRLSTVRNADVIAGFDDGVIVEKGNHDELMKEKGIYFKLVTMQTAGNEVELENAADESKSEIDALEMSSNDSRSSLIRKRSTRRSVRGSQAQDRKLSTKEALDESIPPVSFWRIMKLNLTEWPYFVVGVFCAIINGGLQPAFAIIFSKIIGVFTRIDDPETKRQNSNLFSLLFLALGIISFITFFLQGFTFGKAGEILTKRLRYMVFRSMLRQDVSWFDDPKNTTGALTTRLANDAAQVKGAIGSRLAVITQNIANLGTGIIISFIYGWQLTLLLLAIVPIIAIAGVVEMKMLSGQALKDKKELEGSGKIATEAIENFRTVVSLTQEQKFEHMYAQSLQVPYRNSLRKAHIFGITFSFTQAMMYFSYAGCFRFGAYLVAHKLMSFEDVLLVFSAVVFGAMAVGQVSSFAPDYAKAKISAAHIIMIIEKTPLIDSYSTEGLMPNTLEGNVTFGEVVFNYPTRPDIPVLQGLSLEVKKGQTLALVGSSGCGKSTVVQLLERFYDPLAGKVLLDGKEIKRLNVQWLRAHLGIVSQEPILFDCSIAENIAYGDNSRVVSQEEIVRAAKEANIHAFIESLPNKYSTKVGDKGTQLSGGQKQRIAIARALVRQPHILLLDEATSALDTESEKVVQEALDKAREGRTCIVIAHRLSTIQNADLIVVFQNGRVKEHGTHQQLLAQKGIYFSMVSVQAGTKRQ

Row | SMILES | efflux ratio at 1 h, 10 μmol/L (MDR1) | number of feces 2 hr later (Male SD rats; 1 mg/kg) | number of feces 2 hr later (Male SD rats; 3 mg/kg) | number of HAPCs in the intestinal tract (Male beagle dogs; oral 0.03 mg/kg) | number of HAPCs in the intestinal tract (Male beagle dogs; oral 1 mg/kg)
1 | Cn1cnc(-c2ccc(Cc3cc(C(=O)N[C@H]4CCOC[C@@H]4O)c(F)c4c3OCC4)cc2)c1 [Example 5, 1,5-anhydro-2,3-dideoxy-3-(((4-fluoro-7-(4-(1-methyl-1H-imidazol-4-yl)benzyl)-2,3-dihydro-1-benzofuran-5-yl)carbonyl)amino)-L-threo-pentitol] | 7.3 | 6.3 ± 0.7 | 8.7 ± 1.2 |  | 
2 | Cn1cc(-c2ccc(Cc3cc(C(=O)N[C@H]4CCOC[C@@H]4O)c(F)c4c3OCC4)cn2)cn1 [Example 6, 1,5-anhydro-2,3-dideoxy-3-(((4-fluoro-7-((6-(1-methyl-1H-pyrazol-4-yl)pyridin-3-yl)methyl)-2,3-dihydro-1-benzofuran-5-yl)carbonyl)amino)-L-threo-pentitol] | 18 | 6.6 ± 0.9 |  |  | 
3 | COCCNC(=O)c1ccc(Cc2cc(C(=O)N[C@H]3CCOC[C@@H]3O)c(F)c3c2OCC3)cc1F [Example 13, 1,5-anhydro-2,3-dideoxy-3-(((4-fluoro-7-(3-fluoro-4-((2-methoxyethyl)carbamoyl)benzyl)-2,3-dihydro-1-benzofuran-5-yl)carbonyl)amino)-L-threo-pentitol] | 10 | 9.9 ± 1.6 |  | an increase in the number of HAPCs in the intestinal tract was observed | 
4 | CCOCCNC(=O)c1ccc(Cc2cc(C(=O)N[C@H]3CCOC[C@@H]3O)c(F)c3c2OCC3)cc1F [Example 14, 1,5-anhydro-2,3-dideoxy-3-(((7-(4-((2-ethoxyethyl)carbamoyl)-3-fluorobenzyl)-4-fluoro-2,3-dihydro-1-benzofuran-5-yl)carbonyl)amino)-L-threo-pentitol] | 9.3 | 6.8 ± 1.3 | 10.4 ± 1.1 |  | 
5 | CNC(=O)c1ccc(Cc2cc(C(=O)N[C@H]3CCOC[C@@H]3O)c(OC)c3c2OCC3)cc1F [Example 31, 1,5-anhydro-2,3-dideoxy-3-(((7-(3-fluoro-4-(methylcarbamoyl)benzyl)-4-methoxy-2,3-dihydro-1-benzofuran-5-yl)carbonyl)amino)-L-threo-pentitol] | 28 | 5.9 ± 0.9 |  |  | 
6 | COCCCNC(=O)c1ccc(Cc2cc(C(=O)N[C@H]3CCOC[C@@H]3O)c(OC)c3c2CCC3)cc1F [Example 60, 1,5-anhydro-2,3-dideoxy-3-(((7-(3-fluoro-4-((3-methoxypropyl)carbamoyl)benzyl)-4-methoxy-2,3-dihydro-1H-inden-5-yl)carbonyl)amino)-L-threo-pentitol] | 15 | 6.9 ± 1.2 | 11.4 ± 1.2 |  | an increase in the number of HAPCs in the intestinal tract was observed
